# Experiments:
# [1] = test system: experimental NEC in neonatal mice; test: Experimental NEC in neonatal mice (formula feeding and hypoxia), oral CpG (Example 2); format: in vivo, mouse
# Procedure: (§1) The effect of CpG-ODN 5′-[…]-3′ (SEQ ID NO:6; ODN 1826) on inhibiting NEC in a murine NEC model in vivo, and in ex vivo human samples from infants undergoing intestinal resection for active NEC or at the time of stoma closure was examined. To determine the level of NEC inhibition, the extent of LPS signaling was determined by the degree of expression of pro-inflammatory cytokines iNOS and TNFα by Quantitative real-time PCR (qRT-PCR).
# Committee of the University of Pittsburgh. Swiss Webster mice were obtained from Charles River Laboratories. NEC was induced in 7-10 day old mice as described by Leaphart et al. (21) and Afrazi et al. (54) using formula gavage (a 2:1 ratio of Similac Advance infant formula (Ross Pediatrics):Esbilac canine milk replacer) administered five times/day, along with hypoxia (5% O2, 95% N2) for 10 min in a hypoxic chamber (Billups-Rothenberg, Inc., Del Mar, Calif.) twice daily, for 4 days. This protocol results in the development of patchy necrosis involving the small intestine, which is similar to human NEC, with an increase in circulating cytokines that mimics that observed in human NEC (40). CpG was administered via the oral route at a concentration of 1 mg/kg/day, which included […] of pretreatment prior to the start of the NEC model. Disease severity was determined on histological sections of the terminal ileum by a pediatric pathologist blinded to the study condition according to a scoring system from 0 (normal) to 3 (severe), as described by Leaphart et al. (21).
# (§2) The extent of LPS signaling was determined by the degree of pro-inflammatory cytokines, iNOS, and TNFα by Quantitative real-time PCR (qRT-PCR). qRT-PCR was performed using the Bio-Rad CFX96 Real-Time System (Biorad, Hercules, Calif.) using the primers listed in the table below.
# Statistical analysis was performed using SPSS 13.0 software. ANOVA was used for comparisons for experiments involving more than two experimental groups. Two-tailed student's t-test was used for comparison for experiments consisting of two experimental groups. For analysis of the severity of NEC, chi-square analysis was performed.
# [2] = test system: TLR4-mediated inflammation in human ex vivo intestinal tissue; test: LPS-induced (TLR4-mediated) inflammation in human ex vivo control and NEC intestinal tissue, qRT-PCR; format: cell-based; conditions: CpG 1 uM, LPS 50 ug/ml 3 hours
# Procedure: as §1
# All human tissue was obtained and processed as discarded tissue via waiver of consent with approval from the University of Pittsburgh Institutional Review Board and in accordance with the University of Pittsburgh anatomical tissue procurement guidelines. Human tissue was obtained from infants undergoing intestinal resection for active NEC or at the time of stoma closure (healed NEC at the time of stoma closure). After initial review by the duty pathologist to ensure that adequate diagnostic information was obtained from the gross tissue specimen, the intestinal resection was divided into multiple pieces, and treated in triplicate with media alone, LPS 50 ug/ml, CpG (1 uM) alone or LPS+CpG as described by Neal et al. (55). After 3 hours of treatment, tissue was processed for qRT-PCR, and assessed for the expression of IL1β, TLR4, iNOS or IL-6.
# as §2
# [3] = test system: murine model for NEC (mNEC); test: Murine model for NEC (mNEC), oral CpG-ODN during induction (Example 1); format: in vivo, mouse; conditions: for gross morphology: mNEC mice treated orally vs untreated mNEC mice, FIG. 5; for expression of TNFα in the intestines (quantitative RT-PCR) / disruption of the small intestine mucosa (H&E histology): mNEC mice; for expression of TNFα in the intestines (quantitative RT-PCR): oral 1 mg/kg twice per day in formula, day 4 after mNEC induction, FIG. 1; for disruption of the small intestine mucosa (H&E histology): FIG. 2A-F; for body weight: treated vs untreated mNEC mice
# Procedure: (§3) A murine model for NEC (“mNEC”) was produced in newborn mice by 4 days of hypoxia and formula gavage (52), which leads to the induction of iNOS, reduced enterocyte proliferation, and disruption of the ileal mucosa (“mNEC” mice) as compared to control mice that were allowed to breast feed (“BF” mice”). Specifically, mNEC was induced in 10-d-old mice (12) using formula gavage [Similac Advance infant formula (Abbott Nutrition):Esbilac canine milk replacer, 2:1] 50 μL/g body weight, five times per day for 4 d, and hypoxia (5% O2, 95% N2) administered for 10 min twice daily for 4 d using a hypoxia chamber (Billups-Rothenberg Inc.). CpG-1 was […]-3′ (SEQ ID NO:6), containing phosphorothioate linkages, known in the art as CpG ODN 1826 (Coley Pharmaceutical Group, Ottawa, Ontario, Canada (Pfizer)). CpG-2 was 5′ […] 3′ (SEQ ID NO:9). CpG-1 or CpG-2 was administered at a dose of 1 mg/kg at a frequency of twice per day in the infant formula described above. Oral administration to breast-fed and NEC animals was achieved by gavage with a silastic foam tipped angiocatheter.
# Quantitative RT-PCR was used to assess the effects of orally administered CpG-1 or CpG-2 on expression of the inflammatory cytokine tumor necrosis factor alpha (TNFα) in mNEC versus BF mice. Measurements were made on day 4 after mNEC induction. […] This effect was reflected by histologic evaluation, as depicted in FIG. 2A-F, where the disruption of the small intestine mucosa observed in untreated mNEC mice (FIG. 2B) is ameliorated in mNEC mice orally treated with CpG-1 or CpG-2 (FIGS. 2C and 2D, respectively) to resemble the mucosa of BF control (FIG. 2A).
# [4] = test system: murine model for NEC (mNEC); test: Pre-treatment with CpG-1 48 hours prior to attempted induction of mNEC; format: in vivo, mouse; conditions: administered 48 hours prior to attempted induction of mNEC
# Procedure: FIG. 6A-C. Effects of pre-treatment of mice prior to induction of NEC. (A) Mucosal iNOS expression (as measured by RT-PCR) in BF controls, untreated mNEC animals, mice pre-treated with CpG-1 for 48 hours prior to attempted induction of NEC (“mNEC Cpg1”) and BF mice treated with CpG-1 for 48 hours. (B) Mucosal TNFα expression (as measured by RT-PCR) in BF controls, untreated mNEC animals, mice pre-treated with CpG-1 for 48 hours prior to attempted induction of NEC (“mNEC Cpg1”) and BF mice treated with CpG-1 for 48 hours. (C) Weight at the time of euthanasia of BF controls, untreated mNEC animals, mice pre-treated with CpG-1 for 48 hours prior to attempted induction of NEC (“mNEC Cpg1”) and BF mice treated with CpG-1 for 48 hours.
# as §3
# [5] = test system: NFκB; test: NFκB activation in intestinal mucosa of NFκB-GFP transgenic newborn mice with mNEC, confocal microscopy; format: in vivo, mouse; conditions: mNEC mice vs saline-treated mNEC, FIG. 4A-D
# Description: FIG. 4A-D. Confocal microscopy showing extent of NFκB activation in intestinal mucosa of newborn transgenic mice that express NFκB-GFP. Nuclei are indicated by areas of blue fluorescence. NFκB is detected by a red fluorescent anti-GFP antibody, and is more punctate. Newborn mice were either (A) BF controls treated with saline; (B) mNEC mice treated with saline; or (C) mNEC mice treated with CpG-2. (D) is graphical depiction of results, showing the relative red (GFP) pixel intensity for each animal.
# A murine model for NEC (“mNEC”) was produced in newborn mice by 4 days of hypoxia and formula gavage (52), which leads to the induction of iNOS, reduced enterocyte proliferation, and disruption of the ileal mucosa (“mNEC” mice) as compared to control mice that were allowed to breast feed (“BF” mice”). Specifically, mNEC was induced in 10-d-old mice (12) using formula gavage [Similac Advance infant formula (Abbott Nutrition):Esbilac canine milk replacer, 2:1] 50 μL/g body weight, five times per day for 4 d, and hypoxia (5% O2, 95% N2) administered for 10 min twice daily for 4 d using a hypoxia chamber (Billups-Rothenberg Inc.). CpG-1 was […]-3′ (SEQ ID NO:6), containing phosphorothioate linkages, known in the art as CpG ODN 1826 (Coley Pharmaceutical Group, Ottawa, Ontario, Canada (Pfizer)). CpG-2 was 5′ […] 3′ (SEQ ID NO:9). […]
# [6] = control tissue (healed NEC at stoma closure), FIG. 8A
substance,measurement,setting,value
CpG ODN 1826 [CpG-1],expression of iNOS in the intestinal mucosa (qRT-PCR),"[1]; oral 1 mg/kg, formula-fed NEC mice, FIG. 7B(i), p<0.05 FF+CpG vs FF",reduced
same,expression of IL-6 in the intestinal mucosa (qRT-PCR),"[1]; oral 1 mg/kg, formula-fed NEC mice, FIG. 7B(ii), p<0.05 FF+CpG vs FF",reduced
same,NEC severity score,"[1]; oral 1 mg/kg, score 0 (normal) to 3 (severe), FIG. 7B(iii)",reduced
same,intestinal inflammation (ileum photomicrographs and gross images),"[1]; oral 1 mg/kg/day incl. 4 days pretreatment, formula-fed NEC mice, FIG. 7A",attenuates intestinal inflammation
same,LPS-induced increase in expression of IL1β (qRT-PCR),[2]; [6],reduced
same,LPS-induced increase in expression of TLR4 (qRT-PCR),[2]; [6],reduced
same,LPS-induced expression of IL-6 (qRT-PCR),"[2]; human NEC tissue, FIG. 8B",reduced
same,LPS-induced expression of iNOS (qRT-PCR),"[2]; human NEC tissue, FIG. 8B",reduced
same,gross morphology,[3],much more robust
same,inducible nitric oxide synthase (iNOS) level (qRT-PCR),"[3]; mNEC mice versus BF controls, oral CpG, FIG. 3B",substantially reduced
same,expression of TNFα in the intestines (quantitative RT-PCR),[3],brought the levels of TNFα in mNEC animals down to approach the level in BF controls
same,disruption of the small intestine mucosa (H&E histology),[3]; oral treatment,ameliorated
same,body weight,[3],higher body weight
same,mucosal expression of iNOS (RT-PCR),[4]; FIG. 6A,reduced almost to baseline levels
same,mucosal expression of TNFα (RT-PCR),[4]; FIG. 6B,reduced almost to baseline levels
same,weight at the time of euthanasia,[4]; FIG. 6C,approached controls
"CpG-2: CpG-ODN 5′ TCGTCGTTTTGTCGTTCCTGACGTT 3′ (SEQ ID NO:9) (listed as DNA, chemistry not given here)",disease severity,"[3]; mNEC animals, oral treatment, FIG. 3A",trended towards but did not reach statistical significance
same,gross morphology,[3],much more robust
same,expression of TNFα in the intestines (quantitative RT-PCR),[3],brought the levels of TNFα in mNEC animals down to approach the level in BF controls
same,disruption of the small intestine mucosa (H&E histology),[3]; oral treatment,ameliorated
same,body weight,[3],higher body weight
same,nuclear localization of NFκB (punctate red fluorescence),[5],largely absent
